The AUC(0-t) is the area under the concentration-time curve up to a stated or last time point. Read a high AUC(0-t) as more exposure. One may read the half-life as the time needed for the level to fall by half in the phase considered. One may read the bioavailability as the share of a dose that reaches the circulation, judged against a reference dose that is usually intravenous. Higher therefore signals good availability. By Cmax is commonly meant the highest concentration seen after dosing. The Tmax is the time from dosing to the highest level. The IC50 is the concentration needed to halve the response being measured. A word on the EC50: it is the concentration that produces a half-maximal response.

The nature of data set [1]: Rodent pharmacokinetic study. Format: in vivo, Male wistar rats. The following applies: male, Wistar, plasma, rat; for bioavailability: 3 mg/kg oral vs 1 mg/kg intravenous. As to the method: Male wistar rats (225±25 grams) were used as experimental animals. Three to five animals were housed in each cage. Two days prior to dosing day, male wistar rats (225-250 grams) were anesthetized with isoflurane for surgical placement of jugular vein catheter. Animals were fasted overnight before oral dosing (p.o) and food pellets were allowed 2 hours post dosing, whereas during intravenous dosing food and water were provided as ad libitum. Three rats were dosed with test compounds (3 mg/kg) orally and intravenously (1 mg/kg).
At each time point blood was collected through jugular vein and immediately replenish with an equivalent volume of normal saline from freely moving rats. Collected blood was transferred into a labeled eppendr off containing 10 μL of heparin as anticoagulant. Typically blood samples were collected as following time points: Pre dose, 0.08 (only i.v.), 0.25, 0.5, 1, 2, 4, 6, 8, and 24 hours post dose-(n=3). Blood was centrifuged at 4000 rpm for 10 minutes. Plasma was prepared and stored frozen at −20° C. until analysis. The concentrations of the test compounds were quantified in plasma by qualified LC-MS/MS method using suitable extraction technique. The test compounds were quantified in the calibration range around 2-2000 ng/mL in plasma. Study samples were analyzed using calibration samples in the batch and quality control samples spread across the batch.
Pharmacokinetic parameters Cmax, Tmax, AUCt, T1/2 and Bioavailability were calculated by non-compartmental model using standard non-compartmental model by using WinNonLin 5.0.1 or Phoenix WinNonlin 6.2 version Software package.

Data set [2] in a line: Rodent brain penetration study. Format: in vivo, Male Wistar rats. Conditions: male, Wistar, rat, 3 mg/kg, oral (gavage), read-out: Single dose Brain Penetration (Cb/Cp). The protocol:
Male Wistar rats (225±25 grams) were used as experimental animals. Three animals were housed in each cage. Animals were given water and food ad libitum throughout the experiment and maintained on a 12 hours light/dark cycle. Brain penetration was determined in discrete manner in rats. One day prior to dosing day, male wistar rats (225-250 grams) were acclimatized. After acclimatization the rats were grouped according to their weight. In each group, 3 animals were kept in individual cage and allowed free access to food and water. At each time point (0.50, 1 and 2 hours) n=3 animals were used. The test compounds were suitably preformulated and administered orally at (free base equivalent) 3 mg/kg. Blood samples were removed via, cardiac puncture by using isoflurane anesthesia. The animals were sacrificed to collect brain tissue. Plasma was separated and brain samples were homogenized and stored frozen at −20° C. until analysis. The concentrations of the test compounds in plasma and brain were determined using LC-MS/MS method. The test compounds were quantified in plasma and brain homogenate by qualified LC-MS/MS method using suitable extraction technique. The test compounds were quantified in the calibration range of 1-500 ng/mL in plasma and brain homogenate. Study samples were analyzed using calibration samples in the batch and quality control samples spread across the batch. Extent of brain-plasma ratio was calculated (Cb/Cp).

The nature of data set [3]: Object recognition task model. Type of data set: in vivo, Male Wistar rats. Conditions: 3 mg/kg, p.o. As to the method: The cognition enhancing properties of compounds of this invention were estimated by using this model.
Male Wistar rats (230-280 grams) were used as experimental animals. Four animals were housed in each cage. Animals were kept on 20% food deprivation before one day and given water ad libitum throughout the experiment and maintained on a 12 hours light/dark cycle. Also the rats were habituated to individual arenas for 1 hour in the absence of any objects.
One group of 12 rats received vehicle (1 mL/Kg) orally and another set of animals received compound of the formula (I) either orally or i.p., before one hour of the familiar (T1) and choice trial (T2).
The experiment was carried out in a 50×50×50 cm open field made up of acrylic. In the familiarization phase, (T1), the rats were placed individually in the open field for 3 minutes, in which two identical objects (plastic bottles, 12.5 cm height×5.5 cm diameter) covered in yellow masking tape alone (a1 and a2) were positioned in two adjacent corners, 10 cms from the walls. After 24 hours of the (T1) trial for long-term memory test, the same rats were placed in the same arena as they were placed in T1 trial. Choice phase (T2) rats were allowed to explore the open field for 3 minutes in presence of one familiar object (a3) and one novel object (b) (Amber color glass bottle, 12 cm high and 5 cm in diameter). Familiar objects presented similar textures, colors and sizes. During the T1 and T2 trial, explorations of each object (defined as sniffing, licking, chewing or having moving vibrissae whilst directing the nose towards the object at a distance of less than 1 cm) were recorded separately by stopwatch. Sitting on an object was not regarded as exploratory activity, however, it was rarely observed.
T1 is the total time spent exploring the familiar objects (a1+a2).
T2 is the total time spent exploring the familiar object and novel object (a3+b).
The object recognition test was performed as described by Behaviour Brain Research, 31 (1988), 47-59.

For data set [4], the target named is T1, hERG (Homo sapiens, UniProt Q12809).
T1 construct: expressed in transfected cells; host or cells: HEK293 (hERG-HEK293)
T1 sequence (Q12809 whole entry): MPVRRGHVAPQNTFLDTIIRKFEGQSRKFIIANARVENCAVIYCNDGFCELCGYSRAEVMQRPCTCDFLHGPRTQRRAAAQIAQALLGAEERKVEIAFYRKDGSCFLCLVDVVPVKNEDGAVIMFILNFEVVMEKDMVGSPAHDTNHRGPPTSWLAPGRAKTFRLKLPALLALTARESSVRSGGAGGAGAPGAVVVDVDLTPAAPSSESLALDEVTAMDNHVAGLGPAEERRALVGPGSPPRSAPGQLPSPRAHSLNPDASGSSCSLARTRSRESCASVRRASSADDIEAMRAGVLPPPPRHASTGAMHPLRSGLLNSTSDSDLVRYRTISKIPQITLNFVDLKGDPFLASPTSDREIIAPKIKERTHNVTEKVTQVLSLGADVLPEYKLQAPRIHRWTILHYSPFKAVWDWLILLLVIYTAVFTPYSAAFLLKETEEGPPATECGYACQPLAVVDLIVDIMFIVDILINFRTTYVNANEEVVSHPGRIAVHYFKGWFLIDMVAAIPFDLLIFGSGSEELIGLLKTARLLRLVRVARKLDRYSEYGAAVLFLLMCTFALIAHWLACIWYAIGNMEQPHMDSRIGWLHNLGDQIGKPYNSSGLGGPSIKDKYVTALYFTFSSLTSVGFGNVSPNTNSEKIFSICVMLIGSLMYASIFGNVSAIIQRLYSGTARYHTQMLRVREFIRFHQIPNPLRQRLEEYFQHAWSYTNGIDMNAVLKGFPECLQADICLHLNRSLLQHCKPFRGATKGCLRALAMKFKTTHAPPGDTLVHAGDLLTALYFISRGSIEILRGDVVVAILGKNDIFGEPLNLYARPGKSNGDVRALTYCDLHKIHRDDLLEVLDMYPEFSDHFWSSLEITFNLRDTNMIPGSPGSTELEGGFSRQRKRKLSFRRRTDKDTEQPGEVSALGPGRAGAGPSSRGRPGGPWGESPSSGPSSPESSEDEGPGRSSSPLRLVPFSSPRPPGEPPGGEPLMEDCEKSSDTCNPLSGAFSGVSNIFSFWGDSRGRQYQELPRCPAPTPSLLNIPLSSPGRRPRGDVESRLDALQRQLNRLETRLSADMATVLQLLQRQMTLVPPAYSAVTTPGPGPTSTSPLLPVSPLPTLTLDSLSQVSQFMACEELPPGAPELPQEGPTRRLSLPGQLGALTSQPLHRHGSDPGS
The data set can be described thus: Automated hERG patch clamp assay. Format: cell-based. The following applies: hERG-HEK293 cells, whole cell patch clamp. The protocol:
To study the cardiac safety of test compounds using automated hERG patch clamp assay, hERG-HEK293 cells were grown to 70% confluency and were harvested using accumax. The cells were then suspended in complete media and were incubated at 37° C. and 5% CO2 for 30 minutes before using these cells for the whole cell patch clamp assay. Whole cell patch clamp recordings were conducted on Nanion's Patchliner using I-V protocol of voltage step from holding potential of −80 mV to +40 mV for 500 ms and then to test potential for 500 ms and back to holding potential of −80 mV. Pulses were elicited every 10 seconds. Each test compound concentration was incubated for 5 minutes. Data analysis was done by plotting the raw data using Igor Pro software and IC50 values were calculated. Cells with resistance >1 Gohms and tail currents of >200 pA were taken into consideration for data analysis. Quinidine was used as positive control.

Data set [5] concerns the target T2, recombinant human 5-HT4 receptor (Homo sapiens, UniProt Q13639).
T2 construct: expressed in transfected cells
The data set can be described thus: Determination of EC50 values for 5-HT4 receptor (CHO cells, pCRE-Luc reporter). Conditions: luciferase reporter, 4 hours incubation, read-out: 5-HT4 receptor agonistic binding in-vitro EC50. Type of data set: cell-based. As to the method: A stable CHO cell line expressing recombinant human 5-HT4 receptor and pCRE-Luc reporter system was used for cell-based assay. The assay offers a non-radioactive based approach to determine binding of a compound to GPCRs. In this specific assay, the level of intracellular cyclic AMP, which is modulated by activation, or inhibition of the receptor is measured. The recombinant cells harbor luciferase reporter gene under the control of cAMP response element.
The above cells were grown in 96 well clear bottom white plates in Hams F12 medium containing 10% fetal bovine serum (FBS). Prior to the addition of compounds or standard agonist, cells were serum starved overnight. Increasing concentrations of test compounds were added in OptiMEM medium to the cells. The incubation was continued at 37° C. in CO2 incubator for 4 hours. Medium was removed and cells were washed with phosphate buffered saline. The cells were lysed and luciferase activity was measured in a Luminometer. Luminescence units were plotted against the compound concentrations using Graphpad software. EC50 values of the compounds were defined as the concentration required in stimulating the luciferase activity by 50%.
For orientation: In a reporter assay the amount or activity of a reporter protein is the signal.

SMILES strings stand for the structures. Counter-ions that a name gives are not always drawn. Some results are limits rather than exact numbers.

T2 sequence (Q13639 whole entry): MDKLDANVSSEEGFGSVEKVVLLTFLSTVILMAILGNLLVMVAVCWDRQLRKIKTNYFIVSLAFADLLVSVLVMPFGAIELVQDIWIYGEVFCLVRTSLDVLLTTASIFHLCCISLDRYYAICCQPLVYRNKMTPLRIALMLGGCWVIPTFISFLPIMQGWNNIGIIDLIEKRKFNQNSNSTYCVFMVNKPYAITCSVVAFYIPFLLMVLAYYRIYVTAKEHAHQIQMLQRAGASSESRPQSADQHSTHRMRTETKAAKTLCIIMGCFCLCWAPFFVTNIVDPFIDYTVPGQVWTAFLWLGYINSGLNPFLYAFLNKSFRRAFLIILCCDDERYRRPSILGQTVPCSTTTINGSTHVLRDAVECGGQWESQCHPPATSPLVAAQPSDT

In data set [1] (1 mg/kg, intravenous (bolus)), `CC(C)(O)CN1CCC(F)(CNC(=O)c2cc(Cl)c(N)c3c2OCCC3)CC1.O=C(O)C(O)C(O)C(=O)O` [Example 44, 5-Amino-6-chloro-N-{[4-fluoro-1-(2-hydroxy-2-methylpropyl)-4-piperidinyl]methyl}chroman-8-carboxamide L(+)-tartarate] showed an area under the curve AUC(0-t) of 232 ± 14 ng·h/mL and a half-life of 1.5 h. The bioavailability in data set [1] amounted to 25 ± 1%. Moreover, in data set [1] (3 mg/kg, oral (gavage)), the area under the curve AUC(0-t) was determined as 176 ± 10 ng·h/mL, the maximum concentration (Cmax) was 110 ± 25 ng/mL, the time of peak concentration (Tmax) is 0.33 h and the half-life was 1.3 h. For the same compound, the Kp in data set [2] was 0.78 ± 0.06. Besides, in data set [3], the “Exploration time mean ± S.E.M, Familiar object” value is 5.44 ± 1.02 s; the “Exploration time mean ± S.E.M, Novel object” value turned out to be 14.64 ± 2.19 s; the Inference entry is on record as “Active”. Also, the IC50 in data set [4] is greater than 10000 nM.

`CC(C)(O)CN1CC2C(CNC(=O)c3cc(Cl)c(N)c4c3OCCC4)C2C1` (stereo not drawn) [Example 37, 5-Amino-6-chloro-N-{[3-(2-hydroxy-2-methylpropyl)-3-azabicyclo[3.1.0]hex-6-yl]methyl}chroman-8-carboxamide L(+)-tartarate]: the EC50 in data set [5] fell in the range of 1.1 to 5 nM. The half-inhibitory concentration (IC50) in data set [4] was greater than 10000 nM.

Regarding `Cc1cc2c(N)c(Cl)cc(C(=O)NCC3CCN(CC(C)(C)O)CC3)c2o1` [Example 52, 4-Amino-5-chloro-2-methyl-N-{[1-(2-hydroxy-2-methylpropyl)-4-piperidinyl]methyl}benzofuran-7-carboxamide L(+)-tartarate], the EC50 in data set [5] is no more than 1 nM.

As to `CC(C)(O)CN1CCC(F)(CNC(=O)c2cc(Cl)c(N)c3c2OCCC3)CC1` [Example 43, 5-Amino-6-chloro-N-{[4-fluoro-1-(2-hydroxy-2-methylpropyl)-4-piperidinyl]methyl}chroman-8-carboxamide], the concentration for a half-maximal effect (EC50) in data set [5] was 1.1 to 5 nM.

For `CC(C)(O)CN1CCC(CNC(=O)c2cc(Cl)c(N)c3c2OCCC3)CC1` [Example 41, 5-Amino-6-chloro-N-{[1-(2-hydroxy-2-methylpropyl)-4-piperidinyl]methyl}chroman-8-carboxamide L(+)-tartarate], the EC50 in data set [5] lay in the range of 10.1 to 20 nM.

For `CC(C)(O)CN1CCC(CNC(=O)c2cc(Cl)c(N)c3ccoc23)CC1` [Example 49, 4-Amino-5-chloro-N-{[1-(2-hydroxy-2-methylpropyl)-4-piperidinyl]methyl}benzofuran-7-carboxamide L(+)-tartarate], in data set [5], the concentration giving a half-maximal response (EC50) lay within 1.1 to 5 nM.

For the compound `CC(C)(O)CN1CC2C(CNC(=O)c3cc(Cl)c(N)c4c3OCC4)C2C1` (centres unmarked) [Example 42, 4-Amino-5-chloro-N-{[3-(2-hydroxy-2-methylpropyl)-3-azabicyclo[3.1.0]hex-6-yl]methyl}-2,3-dihydrobenzofuran-7-carboxamide oxalate], in data set [5], the 50% effective concentration (EC50) lay within 5.1 to 10 nM.

In the case of `Nc1c(Cl)cc(C(=O)NCC2C3CN(CC4CCC4)CC23)c2c1CCO2` (centres unmarked) [Example 22, 4-Amino-5-chloro-N-{[3-(cyclobutylmethyl)-3-azabicyclo[3.1.0]hex-6-yl]methyl}-2,3-dihydrobenzofuran-7-carboxamide oxalate], the EC50 in data set [5] was 1.1 to 5 nM.

In the case of `CC(C)(O)CN1CCC(F)(CNC(=O)c2cc(Br)c(N)c3c2OCCC3)CC1.O=C(O)C(O)C(O)C(=O)O` [Example 48, 5-Amino-6-bromo-N-{[4-fluoro-1-(2-hydroxy-2-methylpropyl)-4-piperidinyl]methyl}chroman-8-carboxamide L(+)-tartarate], in data set [1] (1 mg/kg, intravenous (bolus)), the exposure AUC(0-t) stood at 211 ± 41 ng·h/mL and the half-life was 1.5 h. In addition, the bioavailability in data set [1] was determined as 35 ± 5%. In addition, in data set [1] (3 mg/kg, oral (gavage)), the AUC(0-t) was 224 ± 33 ng·h/mL, the Cmax came out at 167 ± 20 ng/mL, the Tmax was determined as 0.31 h and the half-life was 1 h. Further, the Kp in data set [2] was found to be 1 ± 0.16. In data set [3], the “Exploration time mean ± S.E.M, Familiar object” value was 7.02 ± 0.76 s; the “Exploration time mean ± S.E.M, Novel object” value is 13.80 ± 1.74 s; the Inference result is on record as “Active”.

In the case of `Nc1c(Cl)cc(C(=O)NCC2C3CN(C4CCOCC4)CC23)c2c1CCCO2` (stereo not drawn) [Example 6, 5-Amino-6-chloro-N-{[3-(tetrahydro-2H-pyran-4-yl)-3-azabicyclo[3.1.0]hex-6-yl]methyl}chroman-8-carboxamide L(+)-tartarate], in data set [5], the half-maximal effective concentration (EC50) was in the range of 1.1 to 5 nM.

Turning to `CC(C)(CO)CN1CC2C(CNC(=O)c3cc(Cl)c(N)c4c3OCCC4)C2C1` (stereo not drawn) [Example 58, 5-Amino-6-chloro-N-{[3-(3-hydroxy-2,2-dimethylpropyl)-3-azabicyclo[3.1.0]hex-6-yl]methyl}chroman-8-carboxamide L(+)-tartarate], the EC50 in data set [5] was no more than 1 nM.

For the compound `Nc1c(Cl)cc(C(=O)NCC2C3CN(CC4CCOCC4)CC23)c2occc12` (centres unmarked) [Example 13, 4-Amino-5-chloro-N-{[3-(tetrahydro-2H-pyran-4-ylmethyl)-3-azabicyclo[3.1.0]hex-6-yl]methyl}benzofuran-7-carboxamide hydrochloride], the EC50 in data set [5] is 5.1 to 10 nM.

In the case of `Nc1c(Cl)cc(C(=O)NCC2C3CN(CC4CCOCC4)CC23)c2c1CCCO2` (centres unmarked) [Example 1, 5-Amino-6-chloro-N-{[3-(tetrahydro-2H-pyran-4-ylmethyl)-3-azabicyclo[3.1.0]hex-6-yl]methyl}chroman-8-carboxamide hydrochloride], the 50% effective concentration (EC50) in data set [5] is no more than 1 nM.

The values above are taken from US9957257B2, “Amide compounds as 5-HT4 receptor agonists” (SUVEN LIFE SCIENCES LIMITED, priority 2015, dated 2018).
